Read-outs that look alike come from different tables or passages of the source.
Conditions: amide bond, 4 steps

CC(C)C[C@@H]1NC(=O)[C@@H](CC(C)C)NC(=O)[C@H](C)NC(=O)[C@H](CC(=O)O)NC(=O)[C@@H](CC(=O)O)NC(=O)[C@@H](Cc2c[nH]c3ccccc23)NC1=O [cyclo[-D-Asp-Asp-Ala-D-Leu-Leu-D-Trp-]] showed a ring closure, yield of all isomers (from CC(C)C[C@H](NC(=O)[C@@H](CC(C)C)NC(=O)[C@H](C)NC(=O)[C@H](CC(=O)OCc1ccccc1)NC(=O)[C@@H](CC(=O)OCc1ccccc1)NC(=O)[C@@H](Cc1c[nH]c2ccccc12)NC(=O)OC(C)(C)C)C(=O)O, HONB/DCC (active ester), TEA, DMF, 5.04 mM, 16.0 h) of 17.8%.

CC(C)C[C@@H]1NC(=O)[C@@H](CC(C)C)NC(=O)[C@H](C)NC(=O)[C@H](CCC(=O)O)NC(=O)[C@@H](CC(=O)O)NC(=O)[C@@H](Cc2c[nH]c3ccccc23)NC1=O [cyclo[-D-Asp-Glu-Ala-D-Leu-Leu-D-Trp-]] showed a ring closure, yield of all isomers (from CC(C)C[C@H](NC(=O)[C@@H](CC(C)C)NC(=O)[C@H](C)NC(=O)[C@H](CCC(=O)OCc1ccccc1)NC(=O)[C@@H](CC(=O)OCc1ccccc1)NC(=O)[C@@H](Cc1c[nH]c2ccccc12)NC(=O)OC(C)(C)C)C(=O)O, HONB/DCC (active ester), TEA, DMF, 4.97 mM, 16.0 h) of 20.6%.

With CC(C)C[C@@H]1NC(=O)[C@@H](CC(C)C)NC(=O)[C@H](C)NC(=O)CNC(=O)[C@@H](CC(=O)O)NC(=O)[C@@H](Cc2c[nH]c3ccccc23)NC1=O [cyclo[-D-Asp-Gly-Ala-D-Leu-Leu-D-Trp-]] the ring closure, yield of all isomers (from CC(C)C[C@H](NC(=O)[C@@H](CC(C)C)NC(=O)[C@H](C)NC(=O)CNC(=O)[C@@H](CC(=O)OCc1ccccc1)NC(=O)[C@@H](Cc1c[nH]c2ccccc12)NC(=O)OC(C)(C)C)C(=O)O, HONB/DCC (active ester), TEA, DMF, 5.9 mM, 16.0 h) was 19.2%.

CC(C)C[C@@H]1NC(=O)[C@@H](CC(C)C)NC(=O)[C@H](CC(=O)O)NC(=O)[C@H](CCCNC(=O)Cc2c[nH]c3ccccc23)NC(=O)[C@@H](CC(=O)O)NC(=O)[C@@H](Cc2c[nH]c3ccccc23)NC1=O [cyclo[-D-Asp-Orn(COCH2 -Ind)-Asp-D-Leu-Leu-D-Trp-]] showed a ring closure, yield of all isomers (from CC(C)C[C@H](NC(=O)[C@@H](CC(C)C)NC(=O)[C@H](CC(=O)OCc1ccccc1)NC(=O)[C@H](CCCNC(=O)Cc1c[nH]c2ccccc12)NC(=O)OC(C)(C)C)C(=O)N[C@H](Cc1c[nH]c2ccccc12)C(=O)N[C@H](CC(=O)OCc1ccccc1)C(=O)O) of 12.5%.

With CC(C)C[C@@H]1NC(=O)[C@@H](CC(C)C)NC(=O)[C@H](CC(=O)O)NC(=O)[C@H](CCCNC(=O)CCc2ccccc2)NC(=O)[C@@H](CC(=O)O)NC(=O)[C@@H](Cc2c[nH]c3ccccc23)NC1=O [cyclo[-D-Asp-Orn(COCH2 CH2 Ph)-Asp-D-Leu-Leu-D-Trp-]] the ring closure, yield of all isomers (from CC(C)C[C@H](NC(=O)[C@@H](CC(C)C)NC(=O)[C@H](CC(=O)OCc1ccccc1)NC(=O)[C@H](CCCNC(=O)CCc1ccccc1)NC(=O)OC(C)(C)C)C(=O)N[C@H](Cc1c[nH]c2ccccc12)C(=O)N[C@H](CC(=O)OCc1ccccc1)C(=O)O, HONB/DCC (active ester), TEA, DMF, 5.05 mM, 16.0 h) was 40.9%.

With CC(C)C[C@@H]1NC(=O)[C@@H](CC(C)C)NC(=O)[C@H](CC(=O)O)NC(=O)[C@H](CCCNC(=O)Cc2ccccc2)NC(=O)[C@@H](CC(=O)O)NC(=O)[C@@H](Cc2c[nH]c3ccccc23)NC1=O [cyclo[-D-Asp-Orn(COCH2 Ph)-Asp-D-Leu-Leu-D-Trp-]] the ring closure, yield of all isomers (from CC(C)C[C@H](NC(=O)[C@@H](CC(C)C)NC(=O)[C@H](CC(=O)OCc1ccccc1)NC(=O)[C@H](CCCNC(=O)Cc1ccccc1)NC(=O)OC(C)(C)C)C(=O)N[C@H](Cc1c[nH]c2ccccc12)C(=O)N[C@H](CC(=O)OCc1ccccc1)C(=O)O, HONB/DCC (active ester), TEA, DMF, 4.66 mM) was 2.9%.

Molecule CC(C)C[C@@H]1NC(=O)[C@@H](CC(C)C)NC(=O)[C@H](CC(=O)O)NC(=O)[C@H](CCCNC(=O)c2ccccc2)NC(=O)[C@@H](CC(=O)O)NC(=O)[C@@H](Cc2c[nH]c3ccccc23)NC1=O [cyclo[-D-Asp-Orn(COPh)-Asp-D-Leu-Leu-D-Trp-]] has a ring closure, yield of all isomers (from CC(C)C[C@H](NC(=O)[C@@H](CC(C)C)NC(=O)[C@H](CC(=O)OCc1ccccc1)NC(=O)[C@H](CCCNC(=O)c1ccccc1)NC(=O)OC(C)(C)C)C(=O)N[C@H](Cc1c[nH]c2ccccc12)C(=O)N[C@H](CC(=O)OCc1ccccc1)C(=O)O, HONB/DCC (active ester), TEA, DMF, 5.03 mM) of 48.1%.

In the case of CC(C)C[C@@H]1NC(=O)[C@@H](CC(C)C)NC(=O)[C@H](CC(=O)O)NC(=O)[C@@H]2CCCN2C(=O)[C@@H](CC(=O)O)NC(=O)[C@@H](Cc2c[nH]c3ccccc23)NC1=O [cyclo[-D-Asp-Pro-Asp-D-Leu-Leu-D-Trp-]], the ring closure, yield of all isomers (from CC(C)C[C@H](NC(=O)[C@@H](CC(C)C)NC(=O)[C@H](CC(=O)OCc1ccccc1)NC(=O)[C@@H]1CCCN1C(=O)[C@@H](CC(=O)OCc1ccccc1)NC(=O)[C@@H](Cc1c[nH]c2ccccc12)NC(=O)OC(C)(C)C)C(=O)O, HONB/DCC (ONB active ester), TEA, DMF, 5.1 mM, 16.0 h) is reported as 47.4%.

With CC(C)C[C@@H]1NC(=O)C2(CCC2)NC(=O)[C@H](CC(=O)O)NC(=O)[C@H](Cc2c[nH]c3ccccc23)NC(=O)[C@@H](CC(=O)O)NC(=O)[C@@H](Cc2c[nH]c3ccccc23)NC1=O [cyclo[-D-Asp-Trp-Asp-Acbu-Leu-D-Trp-]] the ring closure, yield of all isomers (from CC(C)C[C@H](NC(=O)C1(NC(=O)OC(C)(C)C)CCC1)C(=O)N[C@H](Cc1c[nH]c2ccccc12)C(=O)N[C@H](CC(=O)OCc1ccccc1)C(=O)N[C@@H](Cc1c[nH]c2ccccc12)C(=O)N[C@@H](CC(=O)OCc1ccccc1)C(=O)O, HONB/DCC (active ester), TEA, DMF, 4.95 mM) was 10.4%.

For CC(C)C[C@@H]1NC(=O)[C@@H](CC(C)C)NC(=O)[C@H](CC(=O)O)NC(=O)[C@H](Cc2c[nH]c3ccccc23)NC(=O)[C@@H](CC(=O)O)NC(=O)[C@@H](Cc2c[nH]c3ccccc23)NC1=O [cyclo[-D-Asp-Trp-Asp-D-Leu-Leu-D-Trp-]], the ring closure, yield of all isomers (from CC(C)C[C@H](NC(=O)[C@@H](CC(C)C)NC(=O)[C@H](CC(=O)OCc1ccccc1)NC(=O)[C@H](Cc1c[nH]c2ccccc12)NC(=O)[C@@H](CC(=O)OCc1ccccc1)NC(=O)[C@@H](Cc1c[nH]c2ccccc12)NC(=O)OC(C)(C)C)C(=O)O, HONB/DCC (ONB active ester), TEA, DMF, 4.97 mM, 16.0 h) was 52.9%.

Molecule CC(C)C[C@@H]1NC(=O)[C@@H](c2cccs2)NC(=O)[C@H](CC(=O)O)NC(=O)[C@H](Cc2c[nH]c3ccccc23)NC(=O)[C@@H](CC(=O)O)NC(=O)[C@@H](Cc2c[nH]c3ccccc23)NC1=O [cyclo[-D-Asp-Trp-Asp-D-Thg(2)-Leu-D-Trp-]] has a ring closure, yield of all isomers (from CC(C)C[C@H](NC(=O)[C@H](NC(=O)OC(C)(C)C)c1cccs1)C(=O)N[C@H](Cc1c[nH]c2ccccc12)C(=O)N[C@H](CC(=O)OCc1ccccc1)C(=O)N[C@@H](Cc1c[nH]c2ccccc12)C(=O)N[C@@H](CC(=O)OCc1ccccc1)C(=O)O, HONB/DCC (active ester), TEA, DMF, 5.06 mM) of 4.6%.

With CC(C)C[C@@H]1NC(=O)[C@@H](C(C)(C)C)NC(=O)[C@H](CC(=O)O)NC(=O)[C@H](Cc2c[nH]c3ccccc23)NC(=O)[C@@H](CC(=O)O)NC(=O)[C@@H](Cc2c[nH]c3ccccc23)NC1=O [cyclo[-D-Asp-Trp-Asp-D-tLeu-Leu-D-Trp-]] the ring closure, yield of all isomers (from CC(C)C[C@H](NC(=O)[C@H](NC(=O)OC(C)(C)C)C(C)(C)C)C(=O)N[C@H](Cc1c[nH]c2ccccc12)C(=O)N[C@H](CC(=O)OCc1ccccc1)C(=O)N[C@@H](Cc1c[nH]c2ccccc12)C(=O)N[C@@H](CC(=O)OCc1ccccc1)C(=O)O, HONB/DCC (active ester), then TEA, DMF, 5.03 mM, 16.0 h) was 42.8%.

Work on CC(C)C[C@@H]1NC(=O)[C@@H](CC(C)(C)C)NC(=O)[C@H](CC(=O)O)NC(=O)[C@H](Cc2c[nH]c3ccccc23)NC(=O)[C@@H](CC(=O)O)NC(=O)[C@@H](Cc2c[nH]c3ccccc23)NC1=O [cyclo[-D-Asp-Trp-Asp-D-γMeLeu-Leu-D-Trp-]] yielded a ring closure, yield of all isomers (from CC(C)C[C@H](NC(=O)[C@@H](CC(C)(C)C)NC(=O)OC(C)(C)C)C(=O)N[C@H](Cc1c[nH]c2ccccc12)C(=O)N[C@H](CC(=O)OCc1ccccc1)C(=O)N[C@@H](Cc1c[nH]c2ccccc12)C(=O)N[C@@H](CC(=O)OCc1ccccc1)C(=O)O, HONB/DCC (active ester), then TEA, DMF, 4.97 mM, 16.0 h) of 51.5%.

Reference: patent US5616684A, “Cyclic peptides and use thereof” (priority 1991, dated 1997)
